Data taken from US20250186416A1, “SMOKING CESSATION COMPOUNDS HAVING REDUCED NITROSAMINES AND ASSOCIATED METHODS” (Achieve Life Sciences, Inc., priority 2023, published 2025).
Read-outs that look alike come from different tables or passages of the source.

What was measured:
[1] = cited from earlier work

**Q.** With `O=C1O[C@H]([C@@H](O)CO)C(O)=C1O` [ascorbic acid] as the molecule, how does the “reported pH of ascorbic acid in water” value ([1]; 5 mg/ml) read?
**A.** 3

**Q.** And the “reported pH of ascorbic acid in water” value ([1]; 50 mg/ml)?
**A.** 2

**Q.** Which results are given for `O=c1cccc2n1C[C@@H]1CNC[C@H]2C1` [drug substance (API), cytisine]?
**A.** NNC equivalent in the standard tablet formulation (equivalent of 152 ppb in API): approximately 0.46 ng/tablet; highest level of NNC observed in representative batches of drug substance (API) (storage about 10 months to about 8 years after manufacture): 152 ppb
